# Experimental data from article PMC10283009, “Cellular photo(geno)toxicity of gefitinib after biotransformation” (Frontiers in Pharmacology, 2023).
# Entries after “also recorded” stand apart in the source; their conditions may differ. Counter-ions that a name gives are not always drawn. Like-named read-outs stand apart in the source and are kept apart here.
# Key:
# [1] = set-up: method as in PMID 30069771; details: standard, in ethanol; ref [26]; cited from earlier work
# HaCaT cells [2] = assay: cells; details: for Phototoxicity classification according to OECD 432 Guide: PIF <2 no phototoxicity, 2-5 probable phototoxicity, >5 phototoxicity, HaCaT NRU
# Method: Chlorpromazine (CPZ) and sodium dodecyl sulfate (SDS) served as the positive phototoxic and negative non-phototoxic controls, respectively. […] Therefore, the phototoxicity behavior of the metabolites was studied in parallel with the parent drug.
# Concisely, for each compound, two 96-well plates were seeded at a density of 2.0 × 10^4 cells/well. […] All plates were incubated for 1 h in dark conditions. Then, for each sample, in the presence of ice, one plate was irradiated with a non-cytotoxic dose of 5 J/cm^2 UVA (UVA Light), whereas the other was kept in a dark box (Dark). Next, drug solutions were replaced with fresh DMEM medium, and plates were further incubated overnight. Next day, neutral red solution (50 μg/mL) was added into the wells and incubated for 2 h at 37°C. […] Lastly, the absorbance of the plates was read at 550 nm on a Synergy H1 microplate reader. […] Afterwards, photoirritation factor (PIF) values were calculated using the following equation: PIF=IC50 Dark / IC50 UVA Light
# HaCaT cells [3] = assay: Alkaline comet assay (nuclear DNA damage and repair); assay type: cell-based; details: 100 µM
# Method: The comet assay (single-cell gel electrophoresis) was performed as already detailed in [Garcia-Lainez et al. (2018)] in order to detect both single and double strand breaks and alkaline labile sites on nuclear DNA. […] The reference photogenotoxic control of this assay was CPZ (10 μM). Afterwards, one plate was irradiated under 2 J/cm^2 UVA light dose (4 J/cm^2 for DMT-GFT and DMOR-GFT) while the other one was kept in darkness as the negative control. Later, both irradiated and non-irradiated cells were detached from the plates and 100 µL of cell suspension was mixed with 100 µL 1% low melting point agarose solution and loaded onto FLARE® slides. Then, slides were incubated on ice to allow drop jellification. Finally, slides were embedded in a box with lysis buffer to initiate the lysis of cells and incubated overnight at 4°C. Next day, slides were placed in electrophoresis tank filled with 1 L of cold alkaline electrophoresis buffer (0.2 M NaOH, 1 mM EDTA in distilled water and pH ≥ 13). The electrophoresis was run at 21 V (1 V/cm) for 30 min and kept at 4°C. Then, slides were washed twice with MilliQ water and DNA fixation accomplished by a serial dehydration with 70% ethanol and 100% ethanol solutions during 5 min and followed by drying for 2 h at 37°C. Nuclear DNA was stained with a SYBR Gold® bath (1:10,000 in Tris-EDTA buffer) for 30 min at 4°C and slides were kept in darkness until its visualization. Comets (nucleoids and tails) were visualized using a fluorescence microscope (Leica DMI 4000B). DNA damage was quantified by counting and analyzing at least 100 DNA comets. Finally, total comet score (TCS) was obtained with the classification of six DNA damage types ([Møller, 2006]) applying the formula: Cl. 0×0+Cl. 1×1+Cl. 2×2+Cl. 3×3+[Cl. 4×4+Cl. 5×5+Cl. 6×6]/6
# Where Cl. is the class of DNA damage according to the visual scoring.
# The results are expressed in 1–100 arbitrary units, where class 0 comets are comets with no DNA damage while class 6 comets represent comets with maximum DNA damage. Two-way ANOVA (Analysis of Variance) method was used for the statistical analysis of the data.
# [4] = tested on: caspase-3/7 activity in HaCaT cells; assay: Caspase 3/7 activity assay (Apo-ONE); assay type: cell-based, human; details: after UVA 5 J/cm^2, two concentrations up to about the IC50 under UVA
# Method: HaCaT cells were seeded in 96-well plates at a concentration of 2 × 10^5 cell/mL. The next day, cells, in fresh DMEM medium without phenol red, were treated with the compounds at two different concentrations representing 100% and 50% of cell viability according to NRU dose-response curves. After 1 h incubation at 37°C, one plate was irradiated with UVA light (5 J/cm^2) and the other one was kept in dark conditions. Later, plates were incubated for another 24 h at 37°C with fresh DMEM medium. Then, samples were analyzed by the Apo-ONE Homogeneous Caspase-3/7 assay according to the manufacturer’s instructions. Immediately after, the fluorescence was monitored at 0 h and 4 h after the addition of the substrate using Synergy H1 multi-mode microplate reader (excitation at 499 nm and emission at 521 nm). The data was subjected to statistical analysis using the Two-way ANOVA (Analysis of Variance).
# [5] = Triplet excited-state quenching by DMBA (laser flash photolysis); assay type: physicochemical; details: deaerated acetonitrile, 355 nm laser excitation, DMBA 0.1-10 mM
# Method: A pulsed Nd:YAG L52137 V LOTIS TII laser (Sp Lotis Tii, Minsk, Belarus) was used for the excitation at 355 nm. The single pulses were ∼10 ns of duration, and the energy was ∼12 mJ/pulse. Laser flash photolysis (LFP) equipment consisted of a pulsed laser, a 77250 Oriel monochromator, and an oscilloscope DP04054 Tektronix. The output signal from the oscilloscope was transferred to a personal computer for processing. The DMOR-GFT metabolite was dissolved in acetonitrile up to an absorbance of 0.3 at 355 nm. Solutions were deaerated by bubbling nitrogen through the solution during 15 min. The rate constant of triplet excited-state quenching by 1,4-dihydro-1,2-dimethylbenzoic acid (DMBA) was determined using the Stern–Volmer Equation: 1/τ=1/τq+kq DMBA
# Where τ and τ q are the lifetime of transient species in the presence and absence of DMBA, respectively. Concentrations between 0.1 and 10 mM were used for DMBA. This compound was prepared through Birch reduction following standard procedures ([Andreu et al., 2011]).
# [6] = Singlet oxygen production by time-resolved NIR emission at 1,270 nm; assay type: physicochemical
# [7] = Fluorescence emission spectra in different media; assay type: physicochemical; set-up: unit not given here; details: excitation at 320 nm
# Method: (§1) Absorption spectra were recorded in a JASCO V-760 spectrophotometer using 10 × 10 mm^2 quartz cuvettes at room temperature. […] Fluorescence spectra (λ exc = 320 nm) were recorded using a Synergy H1 multi-mode microplate reader.
# [8] = Fluorescence quantum yield of compounds internalized in HaCaT cells; assay type: physicochemical; details: inside HaCaT cells, excitation at 320 nm, anthracene as standard
# Method: as §1
# In parallel, fluorescence quantum yield (ΦF) of the internalized compounds were also determined, by comparison with anthracene as standard (Φ F = 0.27 in ethanol). […]
# [9] = Photosensitized lipid peroxidation (TBARS assay); details: compound 100 µM, linoleic acid 1 mM in PBS, UVA 15 J/cm^2 vs dark
# [10] = target: T1, human serum albumin (HSA) (Homo sapiens, UniProt P02768); assay: Photoinduced protein oxidation assay (carbonyl content, DNPH derivatization); details: compound 100 µM, HSA 5 mg/mL in PBS, UVA 15 J/cm^2
# T1 sequence (P02768 25-609): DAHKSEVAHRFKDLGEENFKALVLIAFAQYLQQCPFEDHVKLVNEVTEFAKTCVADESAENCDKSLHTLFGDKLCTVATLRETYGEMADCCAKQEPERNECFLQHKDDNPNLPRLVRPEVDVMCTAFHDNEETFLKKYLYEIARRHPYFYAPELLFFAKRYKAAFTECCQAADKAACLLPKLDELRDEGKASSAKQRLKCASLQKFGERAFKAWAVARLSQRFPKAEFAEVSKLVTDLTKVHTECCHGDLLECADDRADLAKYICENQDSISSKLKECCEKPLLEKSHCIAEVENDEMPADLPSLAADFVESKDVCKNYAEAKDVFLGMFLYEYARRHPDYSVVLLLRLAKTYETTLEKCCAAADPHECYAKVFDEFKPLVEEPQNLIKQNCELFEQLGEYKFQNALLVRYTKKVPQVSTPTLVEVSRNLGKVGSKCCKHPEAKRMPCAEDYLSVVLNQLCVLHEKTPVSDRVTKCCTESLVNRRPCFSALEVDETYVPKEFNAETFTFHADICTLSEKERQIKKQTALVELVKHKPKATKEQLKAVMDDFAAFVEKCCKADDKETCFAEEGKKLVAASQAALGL
# HaCaT cells [11] = assay: Lactate dehydrogenase release assay (CytoTox-ONE); assay type: cell-based, human; details: after UVA 5 J/cm^2, concentration near the IC50
# Method: Lactate Dehydrogenase activity assay was performed according to the manufacturer´s protocol. Briefly, HaCaT cells were seeded in 96-well plates (2 × 10^5 cell/mL) and incubated for 24 h. Then, after replacement of the medium with fresh no-phenol red DMEM, cells were incubated for 1 h with the compounds in two different concentrations representing 100% and 50% of cell viability according to NRU dose-response curves. Next, one plate was irradiated with UVA light (5 J/cm^2) while the other one was kept in dark conditions. Next day, samples were analyzed by CytoTox-ONE™ Homogeneous Membrane Integrity Assay and a lysis solution (9% weight/volume solution of Triton X-100 in water) was used to determine the maximum amount of LDH present. The fluorescence was measured 10 min after the addition of the substrate using Synergy H1 multi-mode microplate reader (excitation at 560 nm and emission at 590 nm). The percent of LDH release was determined following the following equation: % LDH release=Experimental LDH release/Maximum LDH release x 100
# [12] = target: T1, human serum albumin (HSA); set-up: purchased Sigma-Aldrich (Madrid, Spain); method as in Tamarit et al., 2021; details: GFT 100 µM, HSA 5 mg/mL in PBS, UVA 15 J/cm^2; carbonyl content value of GFT taken from the literature; ref Tamarit et al., 2021; cited from earlier work
# [13] = Homo sapiens, HaCaT, 1 h, read-out: IC50 dark
# [14] = Homo sapiens, HaCaT, light or radiation study, 1 h, read-out: IC50 UVA light
# [15] = PIF = IC50 Dark / IC50 UVA Light, HaCaT, UVA 5 J/cm^2
# [16] = in presence of calf thymus DNA (ctDNA)
# [17] = in presence of methyl linoleate (ML)
structure (smiles),measurement,setting,value
c1ccc2cc3ccccc3cc2c1 [anthracene],Fluorescence quantum yield (ΦF),[1],0.27
"CCCCCCCCCCCCOS(=O)(=O)[O-].[Na+] [SDS, sodium dodecyl sulfate, reference compound]",Photoirritant factor (PIF),HaCaT cells [2],1
same,IC50,"HaCaT cells [2]; read-out: IC50 UVA light, HaCaT, neutral red uptake, UVA 5 J/cm^2, 1 h incubation with compound",136 ± 23 µM
same,IC50,"HaCaT cells [2]; read-out: IC50 dark, HaCaT, neutral red uptake, kept in dark, 1 h incubation with compound",133 ± 31 µM
"CN(C)CCCN1c2ccccc2Sc2ccc(Cl)cc21 [CPZ, Chlorpromazine hydrochloride, reference compound]",IC50,HaCaT cells [2]; [13],80 ± 17 µM
same,IC50,HaCaT cells [2]; [14],4 ± 0.9 µM
same,Photoirritant factor (PIF),HaCaT cells [2]; [15],20
"COc1cc2ncnc(Nc3ccc(O)c(Cl)c3)c2cc1OCCCN1CCOCC1 [DF-GFT, 4-Defluoro-4-hydroxy gefitinib]",IC50,HaCaT cells [2]; [13],1020 µM
same,IC50,HaCaT cells [2]; [14],1100 µM
same,Phototoxicity classification according to OECD 432 Guide,HaCaT cells [2],non-phototoxic; also recorded: negligible phototoxic activity
same,Photoirritant factor (PIF),HaCaT cells [2]; [15],~1
"COc1cc2ncnc(Nc3ccc(F)c(Cl)c3)c2cc1O [DMOR-GFT, O-Demorpholinopropyl gefitinib]",IC50,HaCaT cells [2]; [13],144 ± 6 µM
same,IC50,HaCaT cells [2]; [14],3 ± 0.6 µM
same,Photoirritant factor (PIF),HaCaT cells [2]; [15],48
same,Percentage of DNA damage (comet assay),HaCaT cells [3]; UVA light 5 min (2 J/cm^2),did not promote DNA damage
same,Percentage of DNA damage (comet assay),HaCaT cells [3]; UVA light 10 min (4 J/cm^2),around 45%
same,Caspase-3/7 activity (relative change),[4],concentration dependent activation of caspase-3/7
same,Rate constant (kq) of triplet excited state quenching by DMBA,[5],1.96 M^−1·s^−1 × 10^9 M^−1·s^−1
same,Singlet oxygen quantum yield (Φ Δ),[6],≤ 0.1
same,Emission (λmax),[7]; in presence of HSA,432
same,Emission (λmax),[7]; [16],448
same,Emission (λmax),[7]; [17],384
same,Fluorescence quantum yield (ΦF),[8],0.1
same,Photosensitized lipid peroxidation (TBARS content),[9],remarkable enhancement in photosensitized lipid peroxidation comparable to the reference
same,Protein photooxidation (carbonyl content of HSA),[10],significant oxidative effect towards HSA
"Oc1cc2ncnc(Nc3ccc(F)c(Cl)c3)c2cc1OCCCN1CCOCC1 [DMT-GFT, O-Demethyl gefitinib]",IC50,HaCaT cells [2]; [13],34 ± 3 µM
same,IC50,HaCaT cells [2]; [14],5 ± 0.1 µM
same,Phototoxicity classification according to OECD 432 Guide,HaCaT cells [2],can still be considered phototoxic
same,Photoirritant factor (PIF),HaCaT cells [2]; [15],7
same,Percentage of DNA damage (comet assay),HaCaT cells [3]; UVA light 10 min (4 J/cm^2),around 54%
same,Caspase-3/7 activity (relative change),[4],caspase-3/7 activity was similar between the concentration of 2.5 µM and the concentration corresponding to IC50
same,LDH release,HaCaT cells [11],did not show any effect on the LDH release
same,Emission (λmax),[7]; [16],450
same,Emission (λmax),[7]; [17],384
same,Fluorescence quantum yield (ΦF),[8],0.04
same,Photosensitized lipid peroxidation (TBARS content),[9],neither GFT nor DMT-GFT showed detectable changes
same,Protein photooxidation (carbonyl content of HSA),[10],did not exhibit any lipid or protein oxidative damage
"COc1cc2ncnc(Nc3ccc(F)c(Cl)c3)c2cc1OCCCN1CCOCC1 [GFT, Gefitinib hydrochloride, reference compound]",Percentage of DNA damage (comet assay),HaCaT cells [3]; UVA light 5 min (2 J/cm^2),around 72%
same,LDH release,HaCaT cells [11],small but significant percent of LDH-release
same,Singlet oxygen quantum yield (Φ Δ),[6],≤ 0.1
same,Fluorescence quantum yield (ΦF),[8],0.07
same,Protein photooxidation (carbonyl content of HSA),[12],significant oxidative effect towards HSA
